A word on the viability: it is a read-out of living cells in per cent, often relative to untreated cells.

A short description of this data set: in vitro. The following applies: human, hela cells, % viability.

As for `O=C(CSc1nnc(-c2ccco2)o1)Nc1cccc2nsnc12` [CBK268006], the viability at 28.5 h, 10 µM was determined as 93.2%. On the same count and under the same terms, as for `CN1CCN(C(=O)c2ccc(-c3cnc(N)c(-c4ccc(O)cc4)n3)cc2F)CC1` [CBK200421], the figure is 90.6%; as for `O=S(=O)(Nc1cccnc1N1CCOCC1)c1cc(C(F)(F)F)cc(C(F)(F)F)c1` [CBK062306], 122%; as for `O=C1CCC(=O)N1CCOc1nccnc1N1CCN(CCc2ccccc2)CC1` [CBK084302], 99.4%. Turning to `CC1=NN(c2ccc(Cl)cc2)C(=O)/C1=C\Nc1nnn[nH]1` [CBK262407], the viability at 28.5 h, 10 µM was 91%. `N#Cc1c(SCC(=O)O)nc(-c2cccs2)c2c1CCCC2` [CBK269858]: the viability at 28.5 h, 10 µM stood at 103%. For the molecule `O=C1CNC(=O)C2(C/C=C/C[C@H]3COCC[C@H]3N1)CCN(C(=O)c1ccc(=O)[nH]n1)CC2` [CBK292161], the viability at 28.5 h, 10 µM came out at 110%.

Take `O=C1CN(S(=O)(=O)CCOc2ccccc2)CC(=O)N1CCc1ccccc1` [CBK261134]: the viability at 28.5 h, 10 µM turned out to be 92.8%.

In the case of `Cc1csc(C2CN(Cc3ccn(C)c(=O)c3)CCO2)n1` (centres unmarked) [CBK305763], the viability at 28.5 h, 10 µM worked out at 91.4%. In the case of `Cc1ccc(-c2ccc3c(c2)COC2(CCNCC2)O3)c(C)c1` [CBK060881], under “bulk resorufin, single well”, the viability at 28.5 h, 10 µM came out at 89.7%. With `O=C(O)C1CCCCC1C(=O)NCCCN1CCOCC1` (centres unmarked) [CBK286903], the viability at 28.5 h, 10 µM worked out at 83.4%. On the same count and under the same terms, then `N#CC1=C(SCc2ccccc2)SC(c2ccc(O)c(O)c2)NC1=O` (centres unmarked) [CBK293972], with 105%; and `CC(C)NC(=O)C[C@@H]1CCNC[C@@H]1Cc1cc(-c2ccccc2)on1` [CBK289147], with 83.7%; and `COc1ccccc1-c1noc(C2CCN(S(=O)(=O)c3ccc(F)cc3)CC2)n1` [CBK269401], with 92.9%. The same measure, in the same setting: then `COc1ccc(-c2c(-c3ccc(O)cc3O)n[nH]c2C)cc1OC` [CBK265552], with 81.7%. With `CC1(C)OC2C(C(=O)O)OC(n3cnc4c(N)ncnc43)C2O1` (centres unmarked) [CBK262912], the viability at 28.5 h, 10 µM is 96.2%. On to `COc1cccc(C(=O)Nc2ccccc2C(=O)Nc2cccc(C(=O)O)c2C)c1` [CBK265768], for which the viability at 28.5 h, 10 µM amounted to 88.1%. Still for that read-out and setting: as for `Nc1cccc(Sc2cccc(C(F)(F)F)n2)c1` [CBK115239], the figure is 99.3%.

For `CN(Cc1ccccc1)Cc1cc(CC2(NCc3ccccc3)COC2)no1` [CBK289645], the viability at 28.5 h, 10 µM was 88.9%. On the same count and under the same terms, then `Cc1ccc(S(=O)(=O)CCOc2nc3c(C(F)(F)F)cc(C4CC4)nc3o2)cc1` [CBK269267], with 111%. Take `Cc1ccc(Nc2ncc(C(=O)NCCCN3CCCCCC3)c3ccccc23)cc1Cl` [CBK291197]: the viability at 28.5 h, 10 µM came out at 105%. In the case of `CCN(Cc1ccncc1)C(=O)NCc1ccc2c(c1)OCO2` [CBK145056], the viability at 28.5 h, 10 µM is 102%. As for `Cc1cc(NC(=O)CCc2c(C)nc(N3CCOCC3)[nH]c2=O)no1` [CBK305636], the viability at 28.5 h, 10 µM came to 93.2%. Turning to `Cc1ccc2oc(-c3cccc(NC(=O)c4ccccc4C(=O)O)c3)nc2c1` [CBK300481], the viability at 28.5 h, 10 µM turned out to be 109%. Take `CCCCC(Sc1nc(N)cc(Cl)n1)c1cc(C)ccn1` (centres unmarked) [CBK016827]: the viability at 28.5 h, 10 µM is 106%. Same read-out and setting: as for `CC(C)NC(=O)[C@@H](C)C1CC[C@@]2(C)CC[C@H](NC(=O)C3CC3)[C@@H](C)[C@@H]2[C@H]1O` (some centres unmarked) [CBK289444], the figure is 85%; as for `COc1ccc(-c2cnc(N)c(N3CCN(C)CC3)n2)c(OC)c1OC` [CBK063489], 103%; as for `CC1CCc2nc(NC(=O)Cn3cc(C(=O)Nc4ccc(F)cc4)ccc3=O)sc2C1` (centres unmarked) [CBK286053], 100%.

As for `O=c1c(Cc2ccccc2)c(O)c2cccc3c2n1CCC3` [CBK291166], the viability at 28.5 h, 10 µM was found to be 93.3%.

On to `Cc1ccc(S(N)(=O)=O)cc1-c1nnc2c3ccccc3c(C)nn12` [CBK266680], for which the viability at 28.5 h, 10 µM was 104%. Same read-out and setting: as for `COc1cc(/C=C2\N=C(c3cc(Cl)ccc3OC)OC2=O)ccc1OC(=O)c1ccccc1` [CBK265069], the figure is 104%.

For `CCN1CCc2cc(CN3CCCC(Cn4ccnc4C)C3)ccc21` (centres unmarked) [CBK281965], the viability at 28.5 h, 10 µM was found to be 96.9%. On to `Fc1cccc(-c2nc(-c3cccnc3)no2)c1` [CBK270260], for which the viability at 28.5 h, 10 µM is 92.6%. For `CCOC(=O)C1(c2ccccc2)CCN(C(=O)N(CCN)CCC(C)c2ccccc2)CC1` (centres unmarked) [CBK002129C], the viability at 28.5 h, 10 µM (bulk resorufin, single well) turned out to be 82.6%.

Regarding `CCN(CC)Cc1ccc2[nH]c(=O)c(CNCc3ccc(OC)cc3)cc2c1` [CBK132113], the viability at 28.5 h, 10 µM came out at 106%. As to `CN1CCCC1CCOc1ncccc1OCCO` (centres unmarked) [CBK039176], the viability at 28.5 h, 10 µM was 118%. With `Cc1ccc2[nH]cc(CCN3CCC(C(=O)NC(=O)Nc4ccccc4F)CC3)c2c1` [CBK034974], the viability at 28.5 h, 10 µM came to 93%.

In the case of `COc1cccc(C2=CC(c3ccccc3Cl)N3N=NNC3=N2)c1` (centres unmarked) [CBK287943], the viability at 28.5 h, 10 µM was found to be 84.4%. With `COC(=O)Nc1ncc(CN2C(=O)c3ccccc3C2=O)s1` [CBK268434], the viability at 28.5 h, 10 µM came out at 111%. As to `CCCN1CC(NS(=O)(=O)c2cc(OC)c(Cl)cc2OC)CC1=O` (centres unmarked) [CBK307581], the viability at 28.5 h, 10 µM was determined as 96.7%.

For the molecule `CC(C)(C)OC(=O)N1CCC(Oc2nccnc2Cl)CC1` [CBK067386], the viability at 28.5 h, 10 µM was 89.8%. On the same count and under the same terms, then `O=C(O)CNC(=O)c1ccccc1NC(=O)c1ccco1` [CBK286894], with 90.2%; and `CC1SC(c2cc3ccccc3o2)N(c2ccc(F)cc2F)C1=O` (centres unmarked) [CBK006917], with 107%. Take `CN(C)C(=S)Oc1ccc2[nH]c3c(c2c1)CCNC31CCN(CCOc2ccccc2)C1` (centres unmarked) [CBK105748]: the viability at 28.5 h, 10 µM turned out to be 74.8%.

Take `CC(C)(C)OC(=O)NCCCn1cc(C(=O)O)nn1` [CBK287028]: the viability at 28.5 h, 10 µM worked out at 90.4%. The same measure, in the same setting: as for `CSC(=S)n1c(C)nc2ccccc21` [CBK018539], the figure is 92.3%; as for `COc1ccnc(N2CCc3c(ncn3C3CC3)C2)n1` [CBK304816], 95.7%. Still for that read-out and setting: then `CSc1ncc(Cl)c(C(=O)Nc2nc(-c3ccc(S(=O)(=O)N4CCOCC4)cc3)cs2)n1` [CBK269064], with 102%.

Consider `Cc1noc(COc2ccc(OCc3nc(C)no3)cc2)n1` [CBK261364], for which the viability at 28.5 h, 10 µM turned out to be 95.6%. With `CN(CC1CCCCC1)C(=O)c1cc2ccsc2[nH]1` [CBK304518], the viability at 28.5 h, 10 µM worked out at 91.4%. On to `Cc1n[nH]c(=O)c2c(C)noc12` [CBK001281], for which the viability at 28.5 h, 10 µM turned out to be 101%. Same read-out and setting: as for `COc1ccc2[nH]c(C(=O)O)c(CCC(=O)O)c2c1` [CBK266582], the figure is 98.1%; as for `N#Cc1ccc(C2NC(=O)c3ccccc3O2)cc1` (centres unmarked) [CBK288180], 89.3%; as for `COc1ccc(CN2CCN(Cc3cc(Br)ccc3O)CC2)cc1OC` [CBK263632], 95.5%.

With `Cc1cccnc1NC(=S)NCc1ccco1` [CBK268907], the viability at 28.5 h, 10 µM is 103%. With `Cc1cc(OC(F)(F)F)ccc1S(=O)(=O)Nc1nc(CC(=O)O)cs1` [CBK000575], the viability at 28.5 h, 10 µM was 87.8%. On the same count and under the same terms, then `O=[N+]([O-])c1cc(C(F)(F)F)ccc1NC(CO)(CO)CO` [CBK261838], with 88.4%. Consider `O=C(Nc1ccc(-c2nc3ccccc3o2)c(O)c1)c1ccc(-c2cccc(Cl)c2)o1` [CBK263422], for which the viability at 28.5 h, 10 µM came to 95.4%. On to `OC(CN1CCN(c2cccc(Cl)c2)CC1)Cn1c2ccccc2c2ccccc21` (centres unmarked) [CBK264333], for which the viability at 28.5 h, 10 µM is 98.2%.

`O=C(c1ccccc1)N1CCN(Cc2cc(=O)n3ccsc3n2)CC1` [CBK306095]: the viability at 28.5 h, 10 µM worked out at 94.4%. Take `CN(C)CCN(Cc1cc2cc3c(cc2[nH]c1=O)OCO3)C(=S)Nc1ccc(F)cc1` [CBK135186]: the viability at 28.5 h, 10 µM was determined as 91.2%. `O=C(NC[C@H]1O[C@@H](CC(=O)N2CCN(c3ccc(F)cc3)CC2)[C@H](O)[C@@H]1O)c1ccco1` [CBK288922]: the viability at 28.5 h, 10 µM came out at 95.4%. As to `Cc1ccc(OCC(O)CN(C)S(=O)(=O)O)c([N+](=O)[O-])c1` (centres unmarked) [CBK262062K], the viability at 28.5 h, 10 µM was 85.3%.

Take `COc1ccc(N(CC(=O)Nc2cccc3cccnc23)S(=O)(=O)c2ccc(C)cc2)cc1` [CBK263965]: the viability at 28.5 h, 10 µM was determined as 74%. The same measure, in the same setting: as for `Nc1nnc(SCC(=O)c2ccc3ccccc3c2)s1` [CBK266120], the figure is 97.7%.

As for `COCCC(=O)NC(Cc1ccsc1)c1nc(C)cs1` (centres unmarked) [CBK282830], the viability at 28.5 h, 10 µM stood at 85.1%. The same measure, in the same setting: as for `COc1ccc2ccccc2c1CN1CCN(Cc2ccccc2)CC1` [CBK261913], the figure is 98.5%; as for `COc1ccccc1OCCSc1nnnn1C1CCCCC1` [CBK141884], 96.6%; as for `CCOC(=O)c1cnn(C2CCCN(Cc3cccc(O)c3)C2)c1` (centres unmarked) [CBK304046], 100%. Regarding `O=C(CSc1ccc2nnc(-c3ccc(F)cc3)n2n1)N1CCCC1` [CBK287519], the viability at 28.5 h, 10 µM was 85.3%. Still for that read-out and setting: as for `CC(=O)Nc1cc(S(=O)(=O)N2CCOCC2)c(Br)cc1C` [CBK034334], the figure is 92.8%; as for `CCCCOc1ccc(C(N)CC(=O)O)cc1` (centres unmarked) [CBK262915], 86.8%; as for `Cc1cccc(NC(=O)C2CC(=O)N=C(Nc3nc4ccccc4s3)N2)c1` (centres unmarked) [CBK264362], 108%. On the same count and under the same terms, as for `O=C(c1c(F)cccc1F)N1CCN(c2ncccn2)CC1` [CBK144517], the figure is 89.3%. In the case of `Cc1[nH]nc2c1C(c1ccc(Cl)cc1)N(CCc1c[nH]c3ccccc13)C2=O` (centres unmarked) [CBK287919], the viability at 28.5 h, 10 µM stood at 114%. Turning to `Cc1cc(N2CCN(C(=O)c3ccsc3)CC2)nc(C(C)C)n1` [CBK304053], the viability at 28.5 h, 10 µM came out at 102%. The same measure, in the same setting: then `CC12CCC(C(=O)O)(c3nc4cc([N+](=O)[O-])ccc4nc31)C2(C)C` (centres unmarked) [CBK266577K], with 95.6%. On the same count and under the same terms, as for `CCCC(C(=O)NCCN(C)C1CCCCC1)n1nc(C)cc1C` (centres unmarked) [CBK282039], the figure is 96.4%. The same measure, in the same setting: then `O=C(N1CCOCC1)N1CCN(c2cncc(-c3ccc(O)cc3)n2)CC1` [CBK126946T], with 96.6%; and `Cc1cc(C)c2c(n1)oc1c(Cl)ncnc12` [CBK008822], with 93%.

These data come from article PMC12040169 (PLOS Biology, 2025).
